Patent publication US9738634B2, “Heterocyclic amide compound and herbicide” (SYNGENTA PARTICIPATIONS AG, priority 2013, dated 2017)

Experiments:
Format in all cases: in vivo
[1] = system: barnyard grass; assay: Test Example 1: weedkilling efficacy, preemergent weed treatment in the submerged state; A: barnyard grass; details: treatment dosage 252 g/ha
How it was run: (§1)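 Pots of alluvial soil were flooded to a 4 cm depth. Mixed weed seeds were sown and 2.5 leaf-stage rice seedlings transplanted. On sowing day, water-diluted emulsion was applied to the water surface (dose in g/ha). After 3 weeks at 25–30 °C, effects were rated.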

[2] = system: bulrush; assay: Test Example 1: weedkilling efficacy, preemergent weed treatment in the submerged state; B: bulrush; details: treatment dosage 252 g/ha
How it was run: as §1

[3] = system: oval-leafed pondweed; assay: Test Example 1: weedkilling efficacy, preemergent weed treatment in the submerged state; C: oval-leafed pondweed; details: treatment dosage 252 g/ha
How it was run: as §1

[4] = system: transplanted rice; assay: Test Example 1: preemergent weed treatment in the submerged state, effect on crop; a: transplanted rice; details: treatment dosage 252 g/ha
How it was run: as §1

[5] = system: barnyard grass; assay: Test Example 2: weedkilling efficacy, growth period weed treatment in the submerged state; A: barnyard grass; details: treatment dosage 252 g/ha
How it was run: (§2)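 Weeds treated at the 1-2 leaf stage by application of diluted emulsion onto floodwater (4 cm depth, alluvial soil) at specified g/ha. Grown in greenhouse at 25 to 30° C; herbicidal effect rated three weeks after treatment.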

[6] = system: bulrush; assay: Test Example 2: weedkilling efficacy, growth period weed treatment in the submerged state; B: bulrush; details: treatment dosage 252 g/ha
How it was run: as §2

[7] = system: oval-leafed pondweed; assay: Test Example 2: weedkilling efficacy, growth period weed treatment in the submerged state; C: oval-leafed pondweed; details: treatment dosage 252 g/ha
How it was run: as §2

[8] = system: crabgrass; assay: Test Example 3: weedkilling efficacy through soil treatment; D: crabgrass; details: treatment dosage 315 g/ha
How it was run: (§3)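 Crop and weed responses were judged three weeks after a uniform surface spray of the water-diluted emulsion at the given g/ha rate. Seeds sat beneath about 1.5 cm of sterilized diluvial soil, and boxes stood in a greenhouse at 25 to 30° C.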

[9] = system: green foxtail; assay: Test Example 3: weedkilling efficacy through soil treatment; E: green foxtail; details: treatment dosage 315 g/ha
How it was run: as §3

[10] = system: black-grass; assay: Test Example 3: weedkilling efficacy through soil treatment; H: black-grass; details: treatment dosage 315 g/ha
How it was run: as §3

[11] = system: Italian ryegrass; assay: Test Example 3: weedkilling efficacy through soil treatment; I: Italian ryegrass; details: treatment dosage 315 g/ha
How it was run: as §3

[12] = system: Indian mallow; assay: Test Example 3: weedkilling efficacy through soil treatment; K: Indian mallow; details: treatment dosage 315 g/ha
How it was run: as §3

[13] = system: redroot pigweed; assay: Test Example 3: weedkilling efficacy through soil treatment; L: redroot pigweed; details: treatment dosage 315 g/ha
How it was run: as §3

[14] = system: fig-leafed goosefoot; assay: Test Example 3: weedkilling efficacy through soil treatment; M: fig-leafed goosefoot; details: treatment dosage 315 g/ha
How it was run: as §3

[15] = system: chickweed; assay: Test Example 3: weedkilling efficacy through soil treatment; N: chickweed; details: treatment dosage 315 g/ha
How it was run: as §3

[16] = system: birds-eye speedwell; assay: Test Example 3: weedkilling efficacy through soil treatment; p: birds-eye speedwell; details: treatment dosage 315 g/ha
How it was run: as §3

[17] = system: directly sown rice; assay: Test Example 3: soil treatment, effect on crop; b: directly sown rice; details: treatment dosage 315 g/ha
How it was run: as §3

[18] = system: corn; assay: Test Example 3: soil treatment, effect on crop; c: corn; details: treatment dosage 315 g/ha
How it was run: as §3

[19] = system: soybean; assay: Test Example 3: soil treatment, effect on crop; d: soybean; details: treatment dosage 315 g/ha
How it was run: as §3

[20] = system: wheat; assay: Test Example 3: soil treatment, effect on crop; e: wheat; details: treatment dosage 315 g/ha
How it was run: as §3

[21] = system: beet; assay: Test Example 3: soil treatment, effect on crop; f: beet; details: treatment dosage 315 g/ha
How it was run: as §3

[22] = system: crabgrass; assay: Test Example 4: weedkilling efficacy by foliar treatment; D: crabgrass; details: treatment dosage 315 g/ha
How it was run: (§4)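 Seeds are spot-sown into sterilized diluvial soil and covered with about 1.5 cm of soil. After 14 days' greenhouse growth at 25 to 30° C, plants are sprayed on stems and leaves with diluted emulsion at the stated g/ha rate, then scored at 3 weeks.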

[23] = system: green foxtail; assay: Test Example 4: weedkilling efficacy by foliar treatment; E: green foxtail; details: treatment dosage 315 g/ha
How it was run: as §4

[24] = system: black-grass; assay: Test Example 4: weedkilling efficacy by foliar treatment; H: black-grass; details: treatment dosage 315 g/ha
How it was run: as §4

[25] = system: Italian ryegrass; assay: Test Example 4: weedkilling efficacy by foliar treatment; I: Italian ryegrass; details: treatment dosage 315 g/ha
How it was run: as §4

[26] = system: Indian mallow; assay: Test Example 4: weedkilling efficacy by foliar treatment; K: Indian mallow; details: treatment dosage 315 g/ha
How it was run: as §4

[27] = system: redroot pigweed; assay: Test Example 4: weedkilling efficacy by foliar treatment; L: redroot pigweed; details: treatment dosage 315 g/ha
How it was run: as §4

[28] = system: fig-leafed goosefoot; assay: Test Example 4: weedkilling efficacy by foliar treatment; M: fig-leafed goosefoot; details: treatment dosage 315 g/ha
How it was run: as §4

[29] = system: chickweed; assay: Test Example 4: weedkilling efficacy by foliar treatment; N: chickweed; details: treatment dosage 315 g/ha
How it was run: as §4

[30] = system: catchweed; assay: Test Example 4: weedkilling efficacy by foliar treatment; O: catchweed; details: treatment dosage 315 g/ha
How it was run: as §4

[31] = system: birds-eye speedwell; assay: Test Example 4: weedkilling efficacy by foliar treatment; p: birds-eye speedwell; details: treatment dosage 315 g/ha
How it was run: as §4

[32] = system: directly sown rice; assay: Test Example 4: foliar treatment, effect on crop; b: directly sown rice; details: treatment dosage 315 g/ha
How it was run: as §4

[33] = system: corn; assay: Test Example 4: foliar treatment, effect on crop; c: corn; details: treatment dosage 315 g/ha
How it was run: as §4

[34] = system: soybean; assay: Test Example 4: foliar treatment, effect on crop; d: soybean; details: treatment dosage 315 g/ha
How it was run: as §4

[35] = system: wheat; assay: Test Example 4: foliar treatment, effect on crop; e: wheat; details: treatment dosage 315 g/ha
How it was run: as §4

[36] = system: beet; assay: Test Example 4: foliar treatment, effect on crop; f: beet; details: treatment dosage 315 g/ha
How it was run: as §4

Compound: CC1=C(c2ccccc2)C(=O)N(C(C)(C)C(=O)Nc2cccc(Br)n2)CO1 [B-2-31]
- A (barnyard grass) weedkilling efficacy grade [1]: 5 (weed kill ratio 90% or more, (practically complete withering))
- B (bulrush) weedkilling efficacy grade [2]: 5 (weed kill ratio 90% or more, (practically complete withering))
- C (oval-leafed pondweed) weedkilling efficacy grade [3]: 5 (weed kill ratio 90% or more, (practically complete withering))
- a (transplanted rice) effect on crop grade [4]: 0 (weed kill ratio 5% or less (practically no effect))
- A (barnyard grass) weedkilling efficacy grade [5]: 5 (weed kill ratio 90% or more, (practically complete withering))
- B (bulrush) weedkilling efficacy grade [6]: 5 (weed kill ratio 90% or more, (practically complete withering))
- C (oval-leafed pondweed) weedkilling efficacy grade [7]: 0 (weed kill ratio 5% or less (practically no effect))
- D (crabgrass) weedkilling efficacy grade [8]: 5 (weed kill ratio 90% or more, (practically complete withering))
- E (green foxtail) weedkilling efficacy grade [9]: 5 (weed kill ratio 90% or more, (practically complete withering))
- H (black-grass) weedkilling efficacy grade [10]: 5 (weed kill ratio 90% or more, (practically complete withering))
- I (Italian ryegrass) weedkilling efficacy grade [11]: 5 (weed kill ratio 90% or more, (practically complete withering))
- K (Indian mallow) weedkilling efficacy grade [12]: 0 (weed kill ratio 5% or less (practically no effect))
- L (redroot pigweed) weedkilling efficacy grade [13]: 5 (weed kill ratio 90% or more, (practically complete withering))
- M (fig-leafed goosefoot) weedkilling efficacy grade [14]: 4 (weed kill ratio 70% or more, less than 90%)
- N (chickweed) weedkilling efficacy grade [15]: 5 (weed kill ratio 90% or more, (practically complete withering))
- P (birds-eye speedwell) weedkilling efficacy grade [16]: 5 (weed kill ratio 90% or more, (practically complete withering))
- b (directly sown rice) effect on crop grade [17]: 5 (weed kill ratio 90% or more, (practically complete withering))
- c (corn) effect on crop grade [18]: 0 (weed kill ratio 5% or less (practically no effect))
- d (soybean) effect on crop grade [19]: 0 (weed kill ratio 5% or less (practically no effect))
- e (wheat) effect on crop grade [20]: 5 (weed kill ratio 90% or more, (practically complete withering))
- f (beet) effect on crop grade [21]: 5 (weed kill ratio 90% or more, (practically complete withering))
- D (crabgrass) weedkilling efficacy grade [22]: 5 (weed kill ratio 90% or more, (practically complete withering))
- E (green foxtail) weedkilling efficacy grade [23]: 5 (weed kill ratio 90% or more, (practically complete withering))
- H (black-grass) weedkilling efficacy grade [24]: 5 (weed kill ratio 90% or more, (practically complete withering))
- I (Italian ryegrass) weedkilling efficacy grade [25]: 5 (weed kill ratio 90% or more, (practically complete withering))
- K (Indian mallow) weedkilling efficacy grade [26]: 5 (weed kill ratio 90% or more, (practically complete withering))
- L (redroot pigweed) weedkilling efficacy grade [27]: 5 (weed kill ratio 90% or more, (practically complete withering))
- M (fig-leafed goosefoot) weedkilling efficacy grade [28]: 4 (weed kill ratio 70% or more, less than 90%)
- N (chickweed) weedkilling efficacy grade [29]: 5 (weed kill ratio 90% or more, (practically complete withering))
- O (catchweed) weedkilling efficacy grade [30]: 3 (weed kill ratio 40% or more, less than 70%)
- P (birds-eye speedwell) weedkilling efficacy grade [31]: 4 (weed kill ratio 70% or more, less than 90%)
- b (directly sown rice) effect on crop grade [32]: 5 (weed kill ratio 90% or more, (practically complete withering))
- c (corn) effect on crop grade [33]: 4 (weed kill ratio 70% or more, less than 90%)
- d (soybean) effect on crop grade [34]: 5 (weed kill ratio 90% or more, (practically complete withering))
- e (wheat) effect on crop grade [35]: 5 (weed kill ratio 90% or more, (practically complete withering))
- f (beet) effect on crop grade [36]: 4 (weed kill ratio 70% or more, less than 90%)
